# Laboratory results as given in patent publication US8163778B2 (Hoffmann-LA Roche Inc., priority 2007, dated 2012).
# Biological target: T1, human liver FBPase (Homo sapiens, UniProt P09467)
# T1 construct: made in house; host or cells: E. coli
# T1 sequence (P09467 2-338 limits assumed): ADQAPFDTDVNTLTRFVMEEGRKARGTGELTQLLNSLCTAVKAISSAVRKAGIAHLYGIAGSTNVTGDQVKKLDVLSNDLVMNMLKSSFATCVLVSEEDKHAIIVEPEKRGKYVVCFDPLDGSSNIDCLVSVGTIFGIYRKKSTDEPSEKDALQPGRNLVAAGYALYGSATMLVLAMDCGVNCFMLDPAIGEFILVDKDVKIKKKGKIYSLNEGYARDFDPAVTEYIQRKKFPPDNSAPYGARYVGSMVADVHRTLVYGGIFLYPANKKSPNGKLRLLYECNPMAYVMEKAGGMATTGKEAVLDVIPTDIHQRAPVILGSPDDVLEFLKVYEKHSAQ
# Assay: FBPase assay (malachite green phosphate release)
# Assay type: biochemical
# Conditions: recombinant human liver FBPase, 50 μM fructose-1,6-bisphosphate
# Procedure: The following tests were carried out for evaluating the inhibitory activity of the compounds of the present invention against human liver FBPase (Swissprot Data base reference PO9467, entry F16P_HUMAN).
# Human liver FBPase cDNA (NM_000507) was purchased from Origene Technologies, Inc, subcloned in a vector for expression in E. Coli., and sequenced. Recombinant human liver FBPase (hlFBPase) was purified according to the following protocol that uses heat denaturation similarly to that described by El-Maghrabi et al. [El-Maghrabi, M. R. et al. “Isolation of a human liver fructose-1,6-bisphosphatase cDNA and expression of the protein in Escherichia coli.” J Biol Chem 268:9466-9472, 1993.]. Briefly, E. coli cells, transiently expressing very high levels of soluble and active human liver FBPase, were suspended in 20 mM Tris-HCl pH 7.5, 1 mM EDTA, 1 mM DTT and were lysed by French press. The soluble extract was heat denatured at 65° C. for 5 min, and insoluble, denatured proteins were removed by centrifugation. The extract was then applied to a BioRad Macro-Prep High Q column equilibrated with 20 mM Tris-HCl pH 7.5, 1 mM EDTA, 1 mM DTT and the flow-through (containing FBPase activity) was collected and applied to a BioRad Macro-Prep HS column equilibrated with 20 mM HEPES pH 7.2, 1 mM DTT. A gradient of increasing NaCl concentration was then applied to the HS column and fractions were collected. Fractions containing active FBPase were pooled and further purified by size exclusion chromatography on a Sephacryl S200 column equilibrated in 20 mM Tris-HCl pH 7.5, 150 mM NaCl, 1 mM EDTA, 1 mM DTT. Purity of the enzyme preparation was >90% as assessed by Mass spectrometry.
# Recombinant human liver FBPase (hlFBPase) activity was assayed through measuring the inorganic phosphate release that results from the hydrolysis of Fructose-1,6-bisphosphate by the enzyme. As described by Baykov A. A. et al. in [Baykov A. A et al., “Malachite Green procedure for orthophosphate determination and its use in alkaline phosphatase-based enzyme immunoassays”. Anal. Biochem., 171:266-270, 1988], inorganic phosphate can be readily quantified by spectrophotometry at 620 nm after complexation with ammonium molybdate/malachite green reagent. Enzymatic reaction was carried out with modifications of the procedure described by Wright S. W. et al. [Wright S. W. et al., “Anilinoquinazoline inhibitors of Fructose-1,6-bisphosphatase bind to a novel allosteric site: synthesis, in vitro characterization, and X-ray crystallography”. J. Med. Chem. 45:3865-3877, 2002]. Specifically, the reaction was carried out in 96 well plates in a final volume of 100 μl in the presence or in the absence of allosteric inhibitors. Reaction was started adding 25 ng of hlFBPase to the reaction mixture containing 50 mM HEPES-KOH buffer pH 7.2, 2 mM MgCl2, 2 mM EDTA, 1 mM DTT, 50 μM fructose-1,6-bisphosphate and 1% DMSO. After 50 minutes incubation at room temperature, the phosphate released was allowed to form a colored complex for 10 min by adding 150 μl of ammonium molybdate/malachite green reagent containing 0.03% malachite green, 0.2% ammonium molybdate, 0.05% Triton X-100 and 0.7 M H2SO4 in water that was stirred for 30 min at room temperature and filtered through 0.2 μm filter. Under these conditions, the assay was linear with time and able to detect FBPase inhibition after spectrophotometric read-out at 620 nm.
row,Structure (SMILES),IC50
1,"COCCc1sc(S(=O)(=O)NC(=O)Nc2cc(OC)cc(C#N)n2)cc1C [Compound 58, N-[(6-Cyano-4-methoxypyridin-2-yl)carbamoyl]-5-(2-methoxyethyl)-4-methylthiophene-2-sulfonamide]",1960 nM
2,"Cc1cccc(S(=O)(=O)NC(=O)Nc2cc(Br)ccn2)c1 [Compound 60, N-[(4-Bromopyridin-2-yl)carbamoyl]-3-methylbenzenesulfonamide]",2070 nM
3,"COCCc1sc(S(=O)(=O)NC(=O)Nc2cc(OC)cc(NC(=O)OC)n2)cc1C [Compound 61, Methyl-{4-methoxy-6-[({[5-(2-methoxyethyl)-4-methyl-2-thienyl]sulfonyl}carbamoyl)amino]pyridin-2-yl}carbamate]",2070 nM
4,"N#CCc1ccc(-c2ccc(S(=O)(=O)NC(=O)Nc3cc(Br)ccn3)s2)cc1 [Compound 65, N-[(4-Bromopyridin-2-yl)carbamoyl]-5-[4-(cyanomethyl)phenyl]thiophene-2-sulfonamide]",2210 nM
5,"O=C(Nc1cc(Br)cc(NC(=O)NS(=O)(=O)c2cccc(Cl)c2)n1)NS(=O)(=O)c1cccc(Cl)c1 [Compound 67, N,N′-[(4-Bromopyridine-2,6-diyl)bis(iminocarbonyl)]bis(3-chlorobenzenesulfonamide)]",2510 nM
6,"O=C(Nc1cc(Br)ccn1)NS(=O)(=O)c1ccc(Cl)cc1 [Compound 69, N-[(4-Bromopyridin-2-yl)carbamoyl]-4-chlorobenzenesulfonamide]",3070 nM
7,"CNC(=O)Nc1cc(OC)cc(NC(=O)NS(=O)(=O)c2cn(C)c3c(OCC(=O)N(C)C)cccc23)n1 [Compound 70, 2-[(3-{[({4-Methoxy-6-[(methylcarbamoyl)amino]pyridin-2-yl}carbamoyl)amino]sulfonyl}-1-methyl-1H-indol-7-yl)oxy]-N,N-dimethylacetamide]",3430 nM
8,"CC(=O)OCCc1sc(S(=O)(=O)NC(=O)Nc2cc(C(F)(F)F)ccn2)cc1C [Compound 77, 2-{3-Methyl-5-[({[4-(trifluoromethyl)pyridin-2-yl]carbamoyl}amino)sulfonyl]-2-thienyl}ethyl acetate]",809 nM
9,"C=C(C)CNc1cc(SC)cc(NC(=O)NS(=O)(=O)c2cc(C)c(CCOC)s2)n1 [Compound 80, 5-(2-Methoxyethyl)-4-methyl-N-({6-[(2-methylprop-2-en-1-yl)amino]-4-(methylthio)pyridin-2-yl}carbamoyl)thiophene-2-sulfonamide]",1610 nM
10,"CC(=O)OCCc1sc(S(=O)(=O)NC(=O)Nc2cc(C(F)(F)F)c(F)c(N)n2)cc1C [Compound 81, 2-{5-[({[6-Amino-5-fluoro-4-(trifluoromethyl)pyridin-2-yl]carbamoyl}amino)sulfonyl]-3-methyl-2-thienyl}ethyl acetate]",665 nM
11,"Nc1cc(Br)cc(NC(=O)NS(=O)(=O)c2coc3ccccc23)n1 [Compound 82, N-[(6-Amino-4-bromopyridin-2-yl)carbamoyl]-1-benzofuran-3-sulfonamide]",1870 nM
12,"Nc1cc(Br)cc(NC(=O)NS(=O)(=O)c2coc3ccc(Br)cc23)n1 [Compound 83, N-[(6-Amino-4-bromopyridin-2-yl)carbamoyl]-5-bromo-1-benzofuran-3-sulfonamide]",5230 nM
13,"Cc1cc(S(=O)(=O)NC(=O)Nc2cc(C(F)(F)F)c(F)c(N)n2)sc1CCO [Compound 84, N-{[6-Amino-5-fluoro-4-(trifluoromethyl)pyridin-2-yl]carbamoyl}-5-(2-hydroxyethyl)-4-methylthiophene-2-sulfonamide]",429 nM

# Continued by falling IC50, values first:
row,IC50,Structure (SMILES)
1,4600 nM,"Cc1cccc(S(=O)(=O)NC(=O)Nc2cccc(Cl)n2)c1 [Compound 72, N-[(6-Chloropyridin-2-yl)carbamoyl]-3-methylbenzenesulfonamide]"
2,4030 nM,"COCCc1sc(S(=O)(=O)NC(=O)Nc2cc(SC)cc(O)n2)cc1C [Compound 71, N-{[6-Hydroxy-4-(methylthio)pyridin-2-yl]carbamoyl}-5-(2-methoxyethyl)-4-methylthiophene-2-sulfonamide]"
3,3050 nM,"CCOc1cc(NC(=O)NS(=O)(=O)c2cc(C)c(CCOC)s2)nc(NC(=O)N(C)C)c1 [Compound 68, N-({6-[(Dimethylcarbamoyl)amino]-4-ethoxypyridin-2-yl}carbamoyl)-5-(2-methoxyethyl)-4-methylthiophene-2-sulfonamide]"
4,2350 nM,"COCCc1sc(S(=O)(=O)NC(=O)Nc2cc(Br)cc(NCc3ccc(OC)cc3OC)n2)cc1C [Compound 66, N-({4-Bromo-6-[(2,4-dimethoxybenzyl)amino]pyridin-2-yl}carbamoyl)-5-(2-methoxyethyl)-4-methylthiophene-2-sulfonamide]"
5,2260 nM,"COCCc1sc(S(=O)(=O)NC(=O)Nc2cc(SC)cc(NCCCO)n2)cc1C [Compound 74, N-({6-[(3-Hydroxypropyl)amino]-4-(methylthio)pyridin-2-yl}carbamoyl)-5-(2-methoxyethyl)-4-methylthiophene-2-sulfonamide]"
6,2180 nM,"CCOc1cc(N)nc(NC(=O)NS(=O)(=O)c2cc(C)c(CCOC)s2)c1 [Compound 64, N-[(6-Amino-4-ethoxypyridin-2-yl)carbamoyl]-5-(2-methoxyethyl)-4-methylthiophene-2-sulfonamide]"
7,2120 nM,"COCCc1sc(S(=O)(=O)NC(=O)Nc2cc(C#N)cc(N)n2)cc1C [Compound 62, N-[(6-Amino-4-cyanopyridin-2-yl)carbamoyl]-5-(2-methoxyethyl)-4-methylthiophene-2-sulfonamide]"
8,2030 nM,"COCCc1sc(S(=O)(=O)NC(=O)Nc2cc(OC)cc(NC(=O)N(C)C)n2)cc1C [Compound 59, N-({6-[(Dimethylcarbamoyl)amino]-4-methoxypyridin-2-yl}carbamoyl)-5-(2-methoxyethyl)-4-methylthiophene-2-sulfonamide]"
9,1770 nM,"COCCOc1ccc(S(=O)(=O)NC(=O)Nc2cc(Br)cc(N)n2)cc1C [Compound 57, N-[(6-Amino-4-bromopyridin-2-yl)carbamoyl]-4-(2-methoxyethoxy)-3-methylbenzenesulfonamide]"
10,1740 nM,"COCCc1sc(S(=O)(=O)NC(=O)Nc2cc(SC)cc(NCCCC(=O)OC)n2)cc1C [Compound 73, Methyl-4-({6-[({[5-(2-methoxyethyl)-4-methyl-2-thienyl]sulfonyl}carbamoyl)amino]-4-(methylthio)pyridin-2-yl}amino)butanoate]"
11,1690 nM,"COCCc1sc(S(=O)(=O)NC(=O)Nc2cc(SC)cc(NCCC(F)(F)F)n2)cc1C [Compound 75, 5-(2-Methoxyethyl)-4-methyl-N-({4-(methylthio)-6-[(3,3,3-trifluoropropyl)amino]pyridin-2-yl}carbamoyl)thiophene-2-sulfonamide]"
12,906 nM,"Cc1cc(S(=O)(=O)NC(=O)Nc2cc(C(F)(F)F)ccn2)sc1CCO [Compound 78, 5-(2-Hydroxyethyl)-4-methyl-N-{[4-(trifluoromethyl)pyridin-2-yl]carbamoyl}thiophene-2-sulfonamide]"
13,558 nM,"COCCc1sc(S(=O)(=O)NC(=O)Nc2cc(C(F)(F)F)c(F)c(N)n2)cc1C [Compound 79, N-{[6-Amino-5-fluoro-4-(trifluoromethyl)pyridin-2-yl]carbamoyl}-5-(2-methoxyethyl)-4-methylthiophene-2-sulfonamide]"
